The values that follow are results of earlier work, collected in publication PMC11123692, “Sugar-Based Surfactants: Effects of Structural Features on the Physicochemical Properties of Sugar Esters and Their Comparison to Commercial Octyl Glycosides” (Molecules, 2024).

Where two headings read alike, the source gives them in different places.

For this series the following is noted: cited from earlier work.
Setting [1] is: at 25 °C, mixture of α and β anomers.

`CCCCCCCC(=O)O[C@H]1[C@H](O)[C@@H](CO)OC(O)[C@@H]1O` (stereo partly drawn) [3-O-octanoyl-D-glucopyranose]: the CMC by setting is: (mixture of α and β anomers) 0.61 mM; (ref 21) 1.6 mM.

`CCCCCCCC(=O)OC1O[C@H](CO)[C@@H](O)[C@H](O)[C@H]1O` (stereo partly drawn) [D-glucosyl octanoate]: the CMC under setting [1] is 19.1 mM.

In the case of `CCCCCCCCOC(=O)[C@@H](O)[C@@H](O)[C@H](O)[C@@H](O)C=O` [octyl D-glucuronate], the CMC is 10.7 mM under setting [1] and 10.68 mM (ref 17).
